Assay results published in ChEMBL document CHEMBL4359931, “Synthesis, biological evaluation and molecular docking studies of new amides of 4-bromothiocolchicine as anticancer agents” (Bioorg Med Chem, 2019).
Calls of active or inactive are those of the source. The calls are words filed in the database; no cut-off is given here.

Experiments:
[1] = Cell cycle arrest in human ALL5 cells assessed as accumulation in S phase at 5 times of antiproliferative IC50 incubated for 24 hrs by propidium iodide based flow cytometry (reference value: […]); type: functional
[2] = Antiproliferative activity against human ALL5 cells assessed as reduction in cell viability incubated for 120 hrs by MTT assay; type: functional, cell-based; settings: ALL5, 120 h
[3] = Cell cycle arrest in human ALL5 cells assessed as accumulation in G1 phase at 5 times of antiproliferative IC50 incubated for 24 hrs by propidium iodide based flow cytometry (reference value: 68.1 %); type: functional
MCF7 [4] = assay: Cell cycle arrest in human MCF7 cells assessed as accumulation in G1 phase at 5 times of antiproliferative IC50 incubated for 24 hrs by propidium iodide based flow cytometry (reference value: 49.9 %); type: functional
[5] = Selectivity index, ratio of IC50 of mouse BALB/3T3 cells to IC50 of human LoVo/DX cells; type: toxicity; settings: BALB/3T3 cells versus LoVo/DX cells, read-out: Ratio IC50
[6] = Selectivity index, ratio of IC50 of mouse BALB/3T3 cells to IC50 of human ALL5 cells
[7] = Cell cycle arrest in human ALL5 cells assessed as accumulation in subG1 phase at 5 times of antiproliferative IC50 incubated for 24 hrs by propidium iodide based flow cytometry (reference value: 10.5 %); type: functional
[8] = Selectivity index, ratio of IC50 of mouse BALB/3T3 cells to IC50 of human LoVo cells; type: toxicity; settings: BALB/3T3 cells versus LoVo cells, read-out: Ratio IC50
MCF7 [9] = assay: Cell cycle arrest in human MCF7 cells assessed as accumulation in G2 phase at 5 times of antiproliferative IC50 incubated for 48 hrs by propidium iodide based flow cytometry (reference value: 16 %); type: functional
[10] = Cell cycle arrest in human ALL5 cells assessed as accumulation in G2 phase at 5 times of antiproliferative IC50 incubated for 24 hrs by propidium iodide based flow cytometry (reference value: 10.6 %); type: functional
Homo sapiens [11] = species on record: Homo sapiens; assay: Induction of cell cycle arrest in human ALL5 cells assessed as increase in 4 N DNA at 5 times of antiproliferative IC50 incubated for 48 hrs by propidium iodide based flow cytometry; type: functional
A549 = assay: Antiproliferative activity against human A549 cells assessed as reduction in cell viability incubated for 120 hrs by MTT assay; type: functional, cell-based; settings: A549, 120 h
Homo sapiens [12] = species on record: Homo sapiens; assay: Induction of cell cycle arrest in human ALL5 cells assessed as increase in 4 N DNA at 5 times of antiproliferative IC50 incubated for 24 hrs by propidium iodide based flow cytometry; type: functional
[13] = Cell cycle arrest in human ALL5 cells assessed as accumulation in S phase at 5 times of antiproliferative IC50 incubated for 72 hrs by propidium iodide based flow cytometry (reference value: 13.5 %); type: functional
BALB/3T3 = assay: Antiproliferative activity against mouse BALB/3T3 cells assessed as reduction in cell viability incubated for 120 hrs by MTT assay; type: cell-based; settings: BALB/3T3, 120 h
MCF7 [14] = assay: Cell cycle arrest in human MCF7 cells assessed as accumulation in subG1 phase at 5 times of antiproliferative IC50 incubated for 72 hrs by propidium iodide based flow cytometry (reference value: 3.59 %); type: functional
[15] = Cell cycle arrest in human ALL5 cells assessed as accumulation in S phase at 5 times of antiproliferative IC50 incubated for 48 hrs by propidium iodide based flow cytometry (reference value: 10.3 %); type: functional
[16] = Cell cycle arrest in human ALL5 cells assessed as accumulation in G2 phase at 5 times of antiproliferative IC50 incubated for 48 hrs by propidium iodide based flow cytometry (reference value: 11.2 %); type: functional
MCF7 [17] = assay: Cell cycle arrest in human MCF7 cells assessed as accumulation in G2 phase at 5 times of antiproliferative IC50 incubated for 72 hrs by propidium iodide based flow cytometry (reference value: 18.6 %); type: functional
MCF7 [18] = assay: Cell cycle arrest in human MCF7 cells assessed as accumulation in G1 phase at 5 times of antiproliferative IC50 incubated for 72 hrs by propidium iodide based flow cytometry (reference value: 58 %); type: functional
[19] = Selectivity index, ratio of IC50 of mouse BALB/3T3 cells to IC50 of human A549 cells
MCF7 [20] = assay: Cell cycle arrest in human MCF7 cells assessed as accumulation in G1 phase at 5 times of antiproliferative IC50 incubated for 48 hrs by propidium iodide based flow cytometry (reference value: 40.8 %); type: functional
[21] = Antiproliferative activity against human LoVo/DX cells assessed as reduction in cell viability incubated for 120 hrs by MTT assay; type: functional, cell-based
LoVo = assay: Antiproliferative activity against human LoVo cells assessed as reduction in cell viability incubated for 120 hrs by MTT assay; type: functional, cell-based
MCF7 [22] = assay: Cell cycle arrest in human MCF7 cells assessed as accumulation in subG1 phase at 5 times of antiproliferative IC50 incubated for 48 hrs by propidium iodide based flow cytometry (reference value: 9.19 %); type: functional
MCF7 [23] = assay: Cell cycle arrest in human MCF7 cells assessed as accumulation in S phase at 5 times of antiproliferative IC50 incubated for 48 hrs by propidium iodide based flow cytometry (reference value: 34 %); type: functional
[24] = Cell cycle arrest in human ALL5 cells assessed as accumulation in subG1 phase at 5 times of antiproliferative IC50 incubated for 72 hrs by propidium iodide based flow cytometry (reference value: 15.5 %); type: functional
MCF7 [25] = assay: Cell cycle arrest in human MCF7 cells assessed as accumulation in S phase at 5 times of antiproliferative IC50 incubated for 24 hrs by propidium iodide based flow cytometry (reference value: 19.9 %); type: functional
[26] = Cell cycle arrest in human ALL5 cells assessed as accumulation in G1 phase at 5 times of antiproliferative IC50 incubated for 72 hrs by propidium iodide based flow cytometry (reference value: 59.7 %); type: functional
[27] = Resistance index, ratio of IC50 of human LoVo/DX cells to IC50 of human LoVo cells; type: functional
MCF7 [28] = assay: Cell cycle arrest in human MCF7 cells assessed as accumulation in S phase at 5 times of antiproliferative IC50 incubated for 72 hrs by propidium iodide based flow cytometry (reference value: 19.8 %); type: functional
[29] = Cell cycle arrest in human ALL5 cells assessed as accumulation in G1 phase at 5 times of antiproliferative IC50 incubated for 48 hrs by propidium iodide based flow cytometry (reference value: 67.4 %); type: functional
[30] = Selectivity index, ratio of IC50 of mouse BALB/3T3 cells to IC50 of human MCF7 cells; type: toxicity; settings: BALB/3T3 cells versus MCF7 cells, read-out: Ratio IC50
[31] = Cell cycle arrest in human ALL5 cells assessed as accumulation in subG1 phase at 5 times of antiproliferative IC50 incubated for 48 hrs by propidium iodide based flow cytometry (reference value: 11 %); type: functional
MCF7 [32] = assay: Cell cycle arrest in human MCF7 cells assessed as accumulation in subG1 phase at 5 times of antiproliferative IC50 incubated for 24 hrs by propidium iodide based flow cytometry (reference value: 7.79 %); type: functional
MCF7 [33] = assay: Cell cycle arrest in human MCF7 cells assessed as accumulation in G2 phase at 5 times of antiproliferative IC50 incubated for 24 hrs by propidium iodide based flow cytometry (reference value: 22.4 %); type: functional
MCF7 [34] = assay: Antiproliferative activity against human MCF7 cells assessed as reduction in cell viability incubated for 120 hrs by MTT assay; type: functional, cell-based; settings: MCF7, 120 h
Homo sapiens [35] = species on record: Homo sapiens; assay: Induction of cell death in human ALL5 cells assessed as decrease in 4 N DNA at 5 times of antiproliferative IC50 incubated for 72 hrs by propidium iodide based flow cytometry; type: functional
[36] = Cell cycle arrest in human ALL5 cells assessed as accumulation in G2 phase at 5 times of antiproliferative IC50 incubated for 72 hrs by propidium iodide based flow cytometry (reference value: 11.3 %); type: functional

Row | IC50 (A549) [nM] | SMILES | Activity [1] [%] | IC50 [2] [nM] | Activity [3] [%] | Activity (MCF7 [4]) [%] | selectivity ratio [5] | Ratio IC50 [6] | Activity [7] [%] | selectivity ratio [8] | Activity (MCF7 [9]) [%] | Activity [10] [%] | Activity (Homo sapiens [11]) | Activity (Homo sapiens [12]) | Activity [13] [%] | IC50 (BALB/3T3) [nM] | Activity (MCF7 [14]) [%] | Activity [15] [%] | Activity [16] [%] | Activity (MCF7 [17]) [%] | Activity (MCF7 [18]) [%] | other results
1 | 10.2 | COc1c(Br)c2c(c(OC)c1OC)-c1ccc(SC)c(=O)cc1[C@@H](NC(=O)C(C)C)CC2 | 13.7 | 8.6 | 52.5 | 12 | 0.3 | 2.4 | 18 | 2.9 | 66.3 | 15.8 | Active | Active | 22.5 | 20.4 | 17.5 | 15.9 | 20 | 57.5 | 9.6 | Ratio IC50 [19]: 2; Activity (MCF7 [20]): 11.4%; IC50 [21]: 75.9 nM; IC50 (LoVo): 7 nM; Activity (MCF7 [22]): 11.8%; Activity (MCF7 [23]): 10.6%; Activity [24]: 46.9%; Activity (MCF7 [25]): 5.16%; Activity [26]: 23%; Ratio IC50 [27]: 10.8; Activity (MCF7 [28]): 15.4%; Activity [29]: 32.1%; selectivity ratio [30]: 1.8; Activity [31]: 31.9%; Activity (MCF7 [32]): 4.89%; Activity (MCF7 [33]): 78%; IC50 (MCF7 [34]): 11.5 nM; Activity (Homo sapiens [35]): Active; Activity [36]: 7.59%
2 | 10.5 | CCC(=O)N[C@H]1CCc2c(Br)c(OC)c(OC)c(OC)c2-c2ccc(SC)c(=O)cc21 | 12.9 | 8.5 | 52.4 | 12 | 0.1 | 1.3 | 17.4 | 1.6 | 63.7 | 17.2 | Active | Active | 19.5 | 11.2 | 17.7 | 14.5 | 17.5 | 53.8 | 12.2 | Ratio IC50 [19]: 1.1; Activity (MCF7 [20]): 15%; IC50 [21]: 87.2 nM; IC50 (LoVo): 7.2 nM; Activity (MCF7 [22]): 12.5%; Activity (MCF7 [23]): 8.78%; Activity [24]: 45.8%; Activity (MCF7 [25]): 7.61%; Activity [26]: 25.7%; Ratio IC50 [27]: 12.1; Activity (MCF7 [28]): 16.3%; Activity [29]: 35%; selectivity ratio [30]: 1; Activity [31]: 33%; Activity (MCF7 [32]): 6.15%; Activity (MCF7 [33]): 74.3%; IC50 (MCF7 [34]): 11.2 nM; Activity (Homo sapiens [35]): Active; Activity [36]: 8.93%
